Measurements published in patent US6632797B2, “Method of treating angiogenesis” (priority 1996, dated 2003).

Legend:
[1] = test system: carrageenan-induced inflammation; assay: Carrageenan-induced paw inflammation in mice (plethysmometer); type: in vivo; conditions: intravenous injection before carrageenan (64 mg/kg stated for PP35-405); after 3.5 hrs
Method: Growth factors are implicated to participate in inflammatory conditions. Carrageenan (0.1 ml, 1%) was injected intraplantarly in one hind paw of two groups of mice, five animals in each group.
An intravenous injection of 64 mg/kg of 1,2-O-ethylene-β-D-fructopyranoside-2,3,4-trisphosphate (PP35-405) was administered immediately before the injection of carrageenan.
Injection of carrageenan induces inflammation which is measured by comparing the increase in paw volume using a plethysmometer.
In a procedure similar to the one described in Example 8, an intravenous injection of 1,5-dideoxy-1,5-imino-N-(2-phenylethyl)arabinitol-2,3,4-trisphosphate (PP35-508) was administered.
In a procedure similar to the one described in Example 8, an intravenous injection of myo-inositol-1,2,6-tris(carboxymethyl phosphonate) (PP40-402) was administered. 3.5 hrs after the injection of carrageenan the inflammation was retarded with 32% in the group recieving PP40-402. Thus the administration of PP40-402 markedly reduces the inflammatory condition.

[2] = test system: HIV (viral isolates from HIV-infected patients) in peripheral blood mononuclear cells (PBMC); assay: HIV infection of PBMC, HIV-antigen production by ELISA; type: cell-based; conditions: normalized HIV-antigen production at day 7, control 100
Method: Growth factor activity is considered to be involved in the process of viral infections. Viral isolates from HIV-infected patients were used in order to induce an infection by adding peripheral blood mononuclear cells (PBMC) to a medium containing different concentrations of the sodium salt of D-3,4,5-tri-O-hexanoyl-myo-inositol-1,2,6-trisphosphate (PP10-202). 25 CCID50 (50% cell culture infections dose) of PBMC from HIV-infected patients were incubated with four different concentrations of PP10-202; 0.0625 mg/ml, 0.125 mg/ml, 0.250 mg/ml and 0.500 mg/ml. Another preparation, without any PP10-202 served as a control. The growth medium consisted of 10% fetal calf serum, […] glutamine, 100 IU/ml penicillin, 100 IU/ml streptomycin and 20 μg/ml gentamicin. The concentration of cells were 2×10^5 per ml. All preparations were incubated for 1 hour at 37° C.
PBMCs from healthy donors were then added to the preparation. Before addition, these cells were stimulated for three days with phytohemagglutinin (PHA). 0.5×10^6 PHA-stimulated PBMCs were added to each preparation, followed by incubation for 3 hours at 37° C. After extensive washing the cells were resuspended in growth medium supplemented with 10 IU/ml of interleukin-2 and seeded in quadruplicates of 100.000 cells in a 96-well microtite plate before further cultivation for 7 days. The HIV-antigen production was assayed at the seventh day using an ELISA-technique.

[3] = Binding constants to the polyamine spermine; type: physicochemical; conditions: 1:1:5 complex; 0.1 M N-tetramethylbromide at 25° C.
Method: The interaction between a polyamine, spermine and different triphosphorylated compounds were investigated in order to determin the binding constants. Spermine is a basic polyamine comprising domains of similar basicity to basic domains in growth factors. Spermine and the different phosphorylated compounds forms different complexes and the 1:1:5 complex was used as the complex for determination of binding constants.
The following binding constants, log Ks was determined in 0.1 M N-tetramethylbromide at 25° C.: […]

[4] = test system: acetic acid-induced writhes; assay: Acetic acid writhing test (analgetic effect); type: in vivo, mice; conditions: 64 mg/kg intravenous, sodium salt; 10-minute observation
Method: Two groups of mice, 10 animals per group, were used in order to investigate the analgetic effect of methyl α-D-rhamnopyranoside-2,3,4-trisphosphate (PP 35-406). The control group was given an intravenous dose of saline while the other group was given a dose of 64 mg/kg of the sodium salt of PP 35-406. Three minutes after intravenous dosing, each […] received an intraperitoneal injection of 1 ml of a 1% (w/w) solution of acetic acid. Directly after that procedure each animal was placed into individual observation chambers and the numbers of writhes elicited during the subsequent 10-minute period were recorded. After the observation period the animals were killed by cervical dislocation. The number of writhes during the observation period is an expression of the pain experienced by the animal. Percent protection was calculated as follows: […]((number of writhes in control group—number of writhes in treated animals)/(number of writhes in control group).

[5] = test system: phosphatidyl inositol 3′ kinase (PI 3′-kinase); assay: Interstitial fluid pressure (PIF) in rat hind paw, wortmannin-induced decrease; type: in vivo, Wistar Möller rats; design: PIF (interstitial fluid pressure): dose or concentration left out as unconfirmed; conditions: wortmannin in DMSO/saline, 5 μl subdermally; after 30 minutes; vehicle ca −0.7 mm Hg
Text: The enzyme phosphatidyl inositol 3′ kinase (PI 3′-kinase) is implicated in a number of growth factor induced responses such as mitogenesis, chemotaxis, membrane ruffling and the balance between osteoclasts and osteoblasts. Furthermore it is known that inactivation of PI 3′ kinase leads to increased oedema formation expressed as a decrease of interstitial fluid pressure (PIF) in animal models.
An inhibitor of PI 3′ kinase such as wortmannin renders a decrease of PIF as a consequence of inactivation of PI 3′ kinase.
The measurements were performed on female Wistar Möller rats (200-250 g), anesthetized with pentobarbital (50 mg/kg i.p.).
PIF was measured on the dorsal side of the hind paw with sharpened glass capillarier (tip diameter 2-7 μm) filled with 0.5 M NaCl coloured with Evans Blue and connected to a serve-controlled counter pressure system. The punctures were performed through intact skin using a stereomicroscope. The pipette-tip was located 0.3-0.5 mm below the skin. Pressure measurements were made 2.5-3.0 mm from the center of injection. The normal transcapillary pressure gradient is about 0.5 mm Hg.
Three sets of experiments were performed with six animals in each set.
In the first set of experiment the vehicle for wortmannin, DMSO diluted in saline, 5 μl, was injected subdermally using a chromatography syringe. […]

log Ks [3] | Molecule | inflammation retarded (increase in paw volume) [1] [%] | further results
– | 1,2-O-ethylene-β-D-fructopyranoside-2,3,4-trisphosphate [PP35-405] | 51 | –
4.20 | CCCCCC(=O)O[C@@H]1[C@@H](OC(=O)CCCCC)[C@@H](OP(=O)(O)O)[C@@H](OP(=O)(O)O)[C@H](OP(=O)(O)O)[C@H]1OC(=O)CCCCC [PP10-202, D-3,4,5-tri-O-hexanoyl-myo-inositol-1,2,6-trisphosphate] | – | HIV-infection ([2]; 0.0625 mg/ml): 75%; HIV-infection ([2]; 0.125 mg/ml): 41%; HIV-infection ([2]; 0.250 mg/ml): 33%; HIV-infection ([2]; 0.500 mg/ml): 20%
4.71 | O=C(Nc1ccccc1)O[C@@H]1[C@@H](OC(=O)Nc2ccccc2)[C@@H](OP(=O)(O)O)[C@@H](OP(=O)(O)O)[C@H](OP(=O)(O)O)[C@H]1OC(=O)Nc1ccccc1 [PP11-201, D-3,4,5-tri-O-phenylcarbamoyl-myo-inositol-1,2,6-trisphosphate] | – | –
– | O=P(O)(O)OC1CN(CCc2ccccc2)CC(OP(=O)(O)O)C1OP(=O)(O)O (stereo not drawn) [PP35-508, 1,5-dideoxy-1,5-imino-N-(2-phenylethyl)arabinitol-2,3,4-trisphosphate] | 27 | –
– | O=C(O)CP(=O)(O)OC1C(O)C(O)C(O)C(OP(=O)(O)CC(=O)O)C1OP(=O)(O)CC(=O)O (stereo not drawn) [PP40-402, myo-inositol-1,2,6-tris(carboxymethyl phosphonate)] | 32 | –
– | CO[C@H]1O[C@H](C)[C@@H](OP(=O)(O)O)[C@H](OP(=O)(O)O)[C@@H]1OP(=O)(O)O [PP 35-406, methyl α-D-rhamnopyranoside-2,3,4-trisphosphate] | – | Percent protection (number of writhes) [4]: 19%
– | COC[C@H]1OC(=O)c2coc3c2[C@@]1(C)C1=C(C3=O)[C@@H]2CCC(=O)[C@@]2(C)C[C@H]1OC(C)=O [wortmannin, reference compound] | – | PIF (interstitial fluid pressure) [5]: −2.5 mm Hg
5.36 | Methyl-6-O-butyl-α-D-mannopyranoside 2,3,4-trisphosphate [PP35-402] | – | –
